We go through 22 compounds from PubChem BioAssay AID330 (DTP/NCI, 2004).

The assay deals with P388 leukemia ip, CD2F1 mice, survival T/C. Nature of the assay: NCI In Vivo Anticancer Drug Screen. Data for tumor model P388 Leukemia (intraperitoneal) in CD2F1 (CDF1) mice. Conditions: endpoint: median survival time, higher = longer survival. The method, boiled down: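 Mice carrying the transplanted tumor received test compound or vehicle. Survival was recorded in each group, and the value is the treated-group measurement divided by that of the vehicle-treated control group.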

The mark [1] stands for this setting: dose: 50.0 mg/kg/injection, schedule: Q01DX005 (ip), vehicle: Klucel (hydroxypropylcellulose) (HPC).
Setting [2] is: dose: 100.0 mg/kg/injection, schedule: Q01DX005 (ip), vehicle: Klucel (hydroxypropylcellulose) (HPC).
[3] abbreviates: dose: 200.0 mg/kg/injection, schedule: Q01DX005 (ip), vehicle: Klucel (hydroxypropylcellulose) (HPC).
Setting [4] is: dose: 50.0 mg/kg/injection, schedule: Q01DX009 (ip), vehicle: other.
[5] abbreviates: dose: 200.0 mg/kg/injection, schedule: Q01DX009 (ip), vehicle: other.
The mark [6] stands for this setting: dose: 100.0 mg/kg/injection, schedule: Q04DX003 (ip), vehicle: saline with Tween-80.
Setting [7] is: dose: 200.0 mg/kg/injection, schedule: Q04DX003 (ip), vehicle: saline with Tween-80.
The mark [8] stands for this setting: dose: 50.0 mg/kg/injection, schedule: Q04DX003 (ip), vehicle: saline with Tween-80.
Where [9] appears, read: dose: 60.0 mg/kg/injection, schedule: Q01DX005 (ip), vehicle: Klucel (hydroxypropylcellulose) (HPC).
The mark [10] stands for this setting: dose: 120.0 mg/kg/injection, schedule: Q01DX005 (ip), vehicle: Klucel (hydroxypropylcellulose) (HPC).
Setting [11] is: dose: 240.0 mg/kg/injection, schedule: Q01DX005 (ip), vehicle: Klucel (hydroxypropylcellulose) (HPC).

SMILES strings stand for the structures. “And” between values parts separate entries of the source, which are not always exact repeats. Identical values can stand only once. Toxic doses and inconclusive results are not listed.

As to `CC(C)=CCc1c(OC(=O)c2c(C)cc(O)cc2O)cc(CO)c(CO)c1O`, the T/C is 101 % of control (dose: 6.25 mg/kg/injection, schedule: Q01DX009 (ip), vehicle: Klucel (hydroxypropylcellulose) (HPC)); 100 % of control and 101 % of control (dose: 12.5 mg/kg/injection, schedule: Q01DX009 (ip), vehicle: Klucel (hydroxypropylcellulose) (HPC)); 101 % of control and 96 % of control (dose: 25.0 mg/kg/injection, schedule: Q01DX009 (ip), vehicle: Klucel (hydroxypropylcellulose) (HPC)); 101 % of control and 104 % of control (dose: 50.0 mg/kg/injection, schedule: Q01DX009 (ip), vehicle: Klucel (hydroxypropylcellulose) (HPC)); 101 % of control and 102 % of control (dose: 100.0 mg/kg/injection, schedule: Q01DX009 (ip), vehicle: Klucel (hydroxypropylcellulose) (HPC)).
With `Brc1ccccc1CN=Cc1ccc2c(c1)OCO2`, the T/C by setting is: under setting [1], 101 % of control; under setting [2], 105 % of control; under setting [3], 103 % of control.
As for `Cc1[nH]c(=O)[nH]c(=O)c1/C=C/C(=O)NC(CO)CSC(C)C` (configuration not stated), the T/C under setting [4] was 86 % of control; the T/C under setting [5] is 90 % of control; the T/C (dose: 400.0 mg/kg/injection, schedule: Q01DX009 (ip), vehicle: other) is 89 % of control.
As to `CCOC(=O)C1=C(C)N[C@@H](c2ccccc2[N+](=O)[O-])N[C@H]1c1ccccc1[N+](=O)[O-]`, the T/C is 101 % of control under setting [1], 101 % of control under setting [2] and 92 % of control under setting [3].
Consider `CCCCCCCCCCCCCCCCOP(=O)(O)OCCCCCCCCCCCCCCCC`, for which the T/C is, setting by setting: under setting [6], 88 % of control; under setting [7], 90 % of control.
Take `CCN(/C=N/N(C)S(C)(=O)=O)c1ccccc1`: the T/C is 104 % of control under setting [1], 116 % of control under setting [2] and 118 % of control under setting [3].
In the case of `CN1C2CCC1CC(O)(c1ccc(Cl)cc1)C2` (configuration not stated), the T/C is 100 % of control (dose: 12.5 mg/kg/injection, schedule: Q01DX005 (ip), vehicle: Klucel (hydroxypropylcellulose) (HPC)); 100 % of control (dose: 25.0 mg/kg/injection, schedule: Q01DX005 (ip), vehicle: Klucel (hydroxypropylcellulose) (HPC)); 107 % of control under setting [1]; 109 % of control under setting [2].
As to `O=C1CC(=O)N2CCSC2=N1`, the T/C was 102 % of control under setting [8]; 101 % of control under setting [6]; 102 % of control under setting [7]; 98 % of control (dose: 400.0 mg/kg/injection, schedule: Q04DX003 (ip), vehicle: saline with Tween-80).
As for `CCOC(=O)C1C[S][Sn]2([NH]1)[NH]C(C(=O)OCC)C[S]2` (configuration not stated), the T/C reads like this: under setting [1], 99 % of control; under setting [2], 106 % of control; under setting [3], 101 % of control.
Take `Clc1cccc(-c2nc(N3CCOCC3)c3c4c(sc3n2)CCC4)c1`: the T/C is 101 % of control under setting [9], 97 % of control under setting [10] and 97 % of control under setting [11].
Turning to `CCC(O)(c1ccccc1)c1cnc(C)n1Cc1ccccc1` (configuration not stated), the T/C (dose: 60.0 mg/kg/injection, schedule: Q01DX005 (ip), vehicle: saline with Tween-80) was 91 % of control; the T/C (dose: 120.0 mg/kg/injection, schedule: Q01DX005 (ip), vehicle: saline with Tween-80) was 88 % of control; the T/C (dose: 240.0 mg/kg/injection, schedule: Q01DX005 (ip), vehicle: saline with Tween-80) is 89 % of control.
On to `C[O+]=c1cccc2sc(-c3ccccc3)ccc1-2`, for which the T/C is 99 % of control under setting [1] and 108 % of control under setting [2].
`CC(C)(C)C(=O)CC(O)(C(F)(F)Cl)C(F)(F)Cl`: the T/C is, setting by setting: under setting [8], 90 % of control; under setting [6], 95 % of control; under setting [7], 105 % of control.
For the compound `N#C/C(=C/C=C/c1ccccc1)c1ccccc1`, the T/C was 109 % of control under setting [1], 102 % of control under setting [2] and 104 % of control under setting [3].
With `OCc1cccc2c1Oc1ccccc1S2`, the T/C was 98 % of control (dose: 100.0 mg/kg/injection, schedule: Q01DX001 (ip), vehicle: saline with Tween-80); 98 % of control (dose: 200.0 mg/kg/injection, schedule: Q01DX001 (ip), vehicle: saline with Tween-80); 95 % of control (dose: 400.0 mg/kg/injection, schedule: Q01DX001 (ip), vehicle: saline with Tween-80).
As to `CC(C)(C)n1nc(C2CC2)c(Br)c1NC(=O)c1ccccc1F`, the T/C (dose: 30.0 mg/kg/injection, schedule: Q01DX005 (ip), vehicle: Klucel (hydroxypropylcellulose) (HPC)) is 100 % of control; the T/C under setting [9] was 98 % of control; the T/C under setting [10] is 104 % of control; the T/C under setting [11] is 100 % of control.
As to `O=C1CC(c2ccc(OCN(CCCl)CCCl)cc2)CC(=O)C1CN(CCCl)CCCl` (configuration not stated), the T/C is 117 % of control (dose: 2.0 mg/kg/injection, schedule: Q01DX009 (ip), vehicle: Klucel (hydroxypropylcellulose) (HPC)); 160 % of control (dose: 4.0 mg/kg/injection, schedule: Q01DX009 (ip), vehicle: Klucel (hydroxypropylcellulose) (HPC)); 153 % of control (dose: 8.0 mg/kg/injection, schedule: Q01DX009 (ip), vehicle: Klucel (hydroxypropylcellulose) (HPC)); 166 % of control and 173 % of control (dose: 16.0 mg/kg/injection, schedule: Q01DX009 (ip), vehicle: Klucel (hydroxypropylcellulose) (HPC)); 190 % of control (dose: 32.0 mg/kg/injection, schedule: Q01DX009 (ip), vehicle: Klucel (hydroxypropylcellulose) (HPC)).
Consider `CC(c1ccccc1)[c-]1[c-][c-][c-][c-]1.[Cl][Zr][Cl].[c-]1[c-][c-][cH-][c-]1` (configuration not stated), for which the T/C is 93 % of control (dose: 3.12 mg/kg/injection, schedule: Q01DX009 (ip), vehicle: saline with Tween-80); 104 % of control (dose: 6.25 mg/kg/injection, schedule: Q01DX009 (ip), vehicle: saline with Tween-80); 104 % of control (dose: 12.5 mg/kg/injection, schedule: Q01DX009 (ip), vehicle: saline with Tween-80); 95 % of control (dose: 50.0 mg/kg/injection, schedule: Q01DX009 (ip), vehicle: saline with Tween-80).
As to `CC1=CC(C)C/C=C/C2C3OC3(C)C(C)C3C(Cc4c[nH]c5ccccc45)NC(=O)C23C(=O)C=CC(=O)C1O` (configuration not stated), the T/C reads like this: (dose: 0.2 mg/kg/injection, schedule: Q01DX005 (ip), vehicle: Klucel (hydroxypropylcellulose) (HPC)) 102 % of control; (dose: 0.4 mg/kg/injection, schedule: Q01DX005 (ip), vehicle: Klucel (hydroxypropylcellulose) (HPC)) 97 % of control; (dose: 0.8 mg/kg/injection, schedule: Q01DX005 (ip), vehicle: Klucel (hydroxypropylcellulose) (HPC)) 106 % of control; (dose: 1.6 mg/kg/injection, schedule: Q01DX005 (ip), vehicle: Klucel (hydroxypropylcellulose) (HPC)) 107 % of control; (dose: 2.0 mg/kg/injection, schedule: Q01DX005 (ip), vehicle: Klucel (hydroxypropylcellulose) (HPC)) 109 % of control; (dose: 16.0 mg/kg/injection, schedule: Q01DX005 (ip), vehicle: Klucel (hydroxypropylcellulose) (HPC)) 117 % of control.
Turning to `COc1cc(Br)c(C(=O)N2CCCc3ccccc32)cc1OC`, the T/C reads like this: (dose: 12.5 mg/kg/injection, schedule: Q01DX009 (ip), vehicle: other) 101 % of control; (dose: 25.0 mg/kg/injection, schedule: Q01DX009 (ip), vehicle: other) 94 % of control; under setting [4], 91 % of control; (dose: 100.0 mg/kg/injection, schedule: Q01DX009 (ip), vehicle: other) 91 % of control; under setting [5], 94 % of control.
Take `CCc1nc2ccccc2c(=O)n1C(C)C`: the T/C (dose: 100.0 mg/kg/injection, schedule: Q04DX002 (ip), vehicle: saline) was 100 % of control; the T/C (dose: 200.0 mg/kg/injection, schedule: Q04DX002 (ip), vehicle: saline) is 106 % of control; the T/C (dose: 400.0 mg/kg/injection, schedule: Q04DX002 (ip), vehicle: saline) was 104 % of control.
On to `C1=NC2=C(CCc3ccccc32)C2=NCCN12`, for which the T/C is, setting by setting: (dose: 10.0 mg/kg/injection, schedule: Q04DX002 (ip), vehicle: saline with Tween-80) 100 % of control; (dose: 20.0 mg/kg/injection, schedule: Q04DX002 (ip), vehicle: saline with Tween-80) 96 % of control; (dose: 40.0 mg/kg/injection, schedule: Q04DX002 (ip), vehicle: saline with Tween-80) 100 % of control.
